Active and inactive are the calls of the source.
Tests used:
[1] = target: T1, Mitogen-activated protein kinase kinase kinase 5 (Homo sapiens, UniProt Q99683)
T1 sequence (Q99683 whole entry): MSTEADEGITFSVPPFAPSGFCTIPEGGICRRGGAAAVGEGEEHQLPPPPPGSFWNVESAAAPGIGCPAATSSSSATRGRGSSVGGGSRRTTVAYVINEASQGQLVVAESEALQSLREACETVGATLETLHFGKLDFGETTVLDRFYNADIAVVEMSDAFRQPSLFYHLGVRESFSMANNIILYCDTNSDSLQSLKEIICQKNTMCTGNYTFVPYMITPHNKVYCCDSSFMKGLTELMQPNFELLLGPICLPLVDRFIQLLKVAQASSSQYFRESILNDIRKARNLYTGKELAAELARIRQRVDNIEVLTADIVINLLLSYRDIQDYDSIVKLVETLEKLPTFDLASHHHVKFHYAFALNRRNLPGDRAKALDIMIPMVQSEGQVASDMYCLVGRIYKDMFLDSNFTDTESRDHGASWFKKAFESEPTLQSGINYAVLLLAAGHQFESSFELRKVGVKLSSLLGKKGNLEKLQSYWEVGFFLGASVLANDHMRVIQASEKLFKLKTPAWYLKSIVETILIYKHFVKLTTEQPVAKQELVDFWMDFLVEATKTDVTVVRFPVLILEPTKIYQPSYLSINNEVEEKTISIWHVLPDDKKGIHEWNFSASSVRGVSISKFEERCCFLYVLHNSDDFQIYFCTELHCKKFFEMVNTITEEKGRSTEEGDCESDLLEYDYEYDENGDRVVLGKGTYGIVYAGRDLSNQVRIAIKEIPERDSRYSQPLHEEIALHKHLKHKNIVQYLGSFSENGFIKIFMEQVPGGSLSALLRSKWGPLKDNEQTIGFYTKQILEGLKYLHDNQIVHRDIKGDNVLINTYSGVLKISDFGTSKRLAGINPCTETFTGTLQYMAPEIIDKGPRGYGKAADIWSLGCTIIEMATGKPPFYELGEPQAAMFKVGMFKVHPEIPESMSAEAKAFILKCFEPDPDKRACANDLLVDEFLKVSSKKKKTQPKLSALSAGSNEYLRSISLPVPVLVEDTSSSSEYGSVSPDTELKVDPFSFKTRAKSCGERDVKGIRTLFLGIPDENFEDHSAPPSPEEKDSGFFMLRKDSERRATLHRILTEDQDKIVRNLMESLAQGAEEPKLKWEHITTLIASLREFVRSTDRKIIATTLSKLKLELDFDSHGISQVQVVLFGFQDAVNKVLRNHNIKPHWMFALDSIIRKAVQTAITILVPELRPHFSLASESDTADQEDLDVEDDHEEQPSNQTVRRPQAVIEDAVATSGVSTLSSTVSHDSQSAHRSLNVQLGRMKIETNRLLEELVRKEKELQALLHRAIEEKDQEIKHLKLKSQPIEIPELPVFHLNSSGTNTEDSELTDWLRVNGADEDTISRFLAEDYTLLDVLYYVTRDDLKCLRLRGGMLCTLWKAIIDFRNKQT

Ephrin type-B receptor 2 = target: T2, Ephrin type-B receptor 2 (Homo sapiens, UniProt P29323)
T2 sequence (P29323 whole entry): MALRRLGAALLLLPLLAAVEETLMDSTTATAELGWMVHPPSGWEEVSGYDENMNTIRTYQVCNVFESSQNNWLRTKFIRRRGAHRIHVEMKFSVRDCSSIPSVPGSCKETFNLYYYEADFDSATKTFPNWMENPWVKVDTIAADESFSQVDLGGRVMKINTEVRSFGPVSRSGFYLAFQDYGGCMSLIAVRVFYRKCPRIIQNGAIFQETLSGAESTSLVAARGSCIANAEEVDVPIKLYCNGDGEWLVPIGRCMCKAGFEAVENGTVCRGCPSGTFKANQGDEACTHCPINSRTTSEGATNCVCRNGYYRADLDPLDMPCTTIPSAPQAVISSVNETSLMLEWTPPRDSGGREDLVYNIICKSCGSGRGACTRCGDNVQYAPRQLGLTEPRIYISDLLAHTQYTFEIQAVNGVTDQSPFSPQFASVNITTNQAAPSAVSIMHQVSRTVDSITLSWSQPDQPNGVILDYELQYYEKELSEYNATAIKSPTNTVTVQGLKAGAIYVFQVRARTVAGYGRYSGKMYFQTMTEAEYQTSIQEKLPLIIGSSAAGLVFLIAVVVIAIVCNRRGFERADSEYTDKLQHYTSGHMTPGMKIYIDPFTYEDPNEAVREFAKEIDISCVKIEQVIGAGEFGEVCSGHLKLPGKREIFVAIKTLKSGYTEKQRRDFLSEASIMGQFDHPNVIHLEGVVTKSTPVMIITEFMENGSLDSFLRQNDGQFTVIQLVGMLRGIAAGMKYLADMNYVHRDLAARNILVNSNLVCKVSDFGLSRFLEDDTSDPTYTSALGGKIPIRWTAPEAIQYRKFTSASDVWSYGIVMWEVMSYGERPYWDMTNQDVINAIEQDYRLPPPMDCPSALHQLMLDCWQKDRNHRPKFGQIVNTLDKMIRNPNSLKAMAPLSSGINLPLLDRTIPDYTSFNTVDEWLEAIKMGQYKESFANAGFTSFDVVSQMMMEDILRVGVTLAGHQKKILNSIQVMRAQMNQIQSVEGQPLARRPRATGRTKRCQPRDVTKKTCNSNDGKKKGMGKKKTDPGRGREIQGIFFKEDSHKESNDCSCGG

[2] = target: Tyrosine-protein kinase BTK (Homo sapiens, UniProt Q06187)
[3] = target: Serine/threonine-protein kinase PAK 2 (Homo sapiens, UniProt Q13177)
[4] = target: Mitogen-activated protein kinase 11 (Homo sapiens, UniProt Q15759)
Note: in the data inactive means no Kd found up to 30 µM.

Chain of Tyrosine-protein kinase BTK (Q06187 whole entry): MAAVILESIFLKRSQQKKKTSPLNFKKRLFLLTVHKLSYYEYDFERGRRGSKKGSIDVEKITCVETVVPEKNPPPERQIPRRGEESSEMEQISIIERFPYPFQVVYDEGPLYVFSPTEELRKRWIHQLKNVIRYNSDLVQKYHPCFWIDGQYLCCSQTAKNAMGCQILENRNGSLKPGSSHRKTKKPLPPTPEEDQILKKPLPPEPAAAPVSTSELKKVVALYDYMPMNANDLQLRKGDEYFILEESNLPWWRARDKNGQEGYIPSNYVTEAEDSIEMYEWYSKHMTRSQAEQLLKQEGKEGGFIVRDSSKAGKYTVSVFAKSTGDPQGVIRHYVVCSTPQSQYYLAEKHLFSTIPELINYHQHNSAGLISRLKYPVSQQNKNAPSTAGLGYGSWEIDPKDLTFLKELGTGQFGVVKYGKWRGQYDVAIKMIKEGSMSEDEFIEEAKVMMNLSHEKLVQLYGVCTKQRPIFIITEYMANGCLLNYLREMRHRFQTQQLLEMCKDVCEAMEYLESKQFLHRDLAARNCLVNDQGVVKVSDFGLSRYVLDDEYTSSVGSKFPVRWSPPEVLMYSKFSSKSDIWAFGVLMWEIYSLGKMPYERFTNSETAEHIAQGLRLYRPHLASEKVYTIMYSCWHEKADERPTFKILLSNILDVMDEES
Chain of Mitogen-activated protein kinase 11 (Q15759 whole entry): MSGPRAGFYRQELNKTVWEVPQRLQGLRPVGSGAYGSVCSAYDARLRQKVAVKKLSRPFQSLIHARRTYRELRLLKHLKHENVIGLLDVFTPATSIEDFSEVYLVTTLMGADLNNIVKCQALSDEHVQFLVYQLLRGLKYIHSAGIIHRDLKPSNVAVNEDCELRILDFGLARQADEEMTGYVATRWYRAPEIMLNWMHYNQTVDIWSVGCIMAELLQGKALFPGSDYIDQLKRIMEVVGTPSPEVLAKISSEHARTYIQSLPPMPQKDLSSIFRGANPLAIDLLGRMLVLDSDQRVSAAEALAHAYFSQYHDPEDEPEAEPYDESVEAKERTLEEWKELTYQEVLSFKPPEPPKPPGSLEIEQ
Chain of Serine/threonine-protein kinase PAK 2 (Q13177 whole entry): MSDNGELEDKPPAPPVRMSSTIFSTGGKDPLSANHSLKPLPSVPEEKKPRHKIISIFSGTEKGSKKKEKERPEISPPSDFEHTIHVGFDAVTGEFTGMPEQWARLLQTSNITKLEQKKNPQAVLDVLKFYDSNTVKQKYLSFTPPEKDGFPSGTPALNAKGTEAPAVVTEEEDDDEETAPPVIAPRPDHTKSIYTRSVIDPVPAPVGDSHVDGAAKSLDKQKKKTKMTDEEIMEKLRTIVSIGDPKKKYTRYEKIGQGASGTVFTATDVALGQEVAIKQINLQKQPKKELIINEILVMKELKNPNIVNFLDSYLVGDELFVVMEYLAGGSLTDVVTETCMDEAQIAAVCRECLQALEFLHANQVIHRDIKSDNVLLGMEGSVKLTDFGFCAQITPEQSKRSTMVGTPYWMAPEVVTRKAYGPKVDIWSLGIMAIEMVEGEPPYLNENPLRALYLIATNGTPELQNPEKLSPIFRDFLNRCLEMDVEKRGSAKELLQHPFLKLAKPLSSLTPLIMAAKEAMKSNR

Structure (SMILES) | Kd [1] | Kd (Ephrin type-B receptor 2) | Kd [2] | Kd [3] | Kd [4]
O=C(c1ccc(F)c(F)c1Nc1ccc(I)cc1F)N1CC(O)([C@@H]2CCCCN2)C1 [COBIMETINIB] | > 30 µM (inactive) | > 30 µM (inactive) | > 30 µM (inactive) | > 30 µM (inactive) | > 30 µM (inactive)
COC(=O)N[C@@H](C)CNc1nccc(-c2cn(C(C)C)nc2-c2cc(Cl)cc(NS(C)(=O)=O)c2F)n1 [ENCORAFENIB] | > 30 µM (inactive) | > 30 µM (inactive) | > 30 µM (inactive) | > 30 µM (inactive) | > 30 µM (inactive)
Cc1cc(Nc2cc(N3CCN(C)CC3)nc(/C=C/c3ccccc3)n2)n[nH]1 [ENMD-2076] | > 30 µM (inactive) | > 30 µM (inactive) | > 30 µM (inactive) | > 30 µM (inactive) | > 30 µM (inactive)
CO[C@H]1C[C@@H]2CC[C@@H](C)[C@@](O)(O2)C(=O)C(=O)N2CCCC[C@H]2C(=O)O[C@H]([C@H](C)C[C@@H]2CC[C@@H](OCCO)[C@H](OC)C2)CC(=O)[C@H](C)/C=C(\C)[C@@H](O)[C@@H](OC)C(=O)[C@H](C)C[C@H](C)/C=C/C=C/C=C/1C [EVEROLIMUS] | > 30 µM (inactive) | > 30 µM (inactive) | > 30 µM (inactive) | > 30 µM (inactive) | > 30 µM (inactive)
COCCNCc1ccc(-c2cc3nccc(Oc4ccc(NC(=S)NC(=O)Cc5ccc(F)cc5)cc4F)c3s2)nc1 [GLESATINIB] | > 30 µM (inactive) | > 30 µM (inactive) | > 30 µM (inactive) | > 30 µM (inactive) | > 30 µM (inactive)
O=C1NC(=O)/C(=C/c2ccc3nccc(-c4ccncc4)c3c2)S1 [GSK-1059615] | > 30 µM (inactive) | > 30 µM (inactive) | > 30 µM (inactive) | > 30 µM (inactive) | > 30 µM (inactive)
CC[C@H](Nc1ncnc2[nH]cnc12)c1nc2cccc(F)c2c(=O)n1-c1ccccc1 [IDELALISIB] | > 30 µM (inactive) | > 30 µM (inactive) | > 30 µM (inactive) | > 30 µM (inactive) | > 30 µM (inactive)
Cn1cc(-c2ccc3nnc(C(F)(F)c4ccc5ncccc5c4)n3n2)cn1 [JNJ-38877605] | > 30 µM (inactive) | > 30 µM (inactive) | > 30 µM (inactive) | > 30 µM (inactive) | > 30 µM (inactive)
COC(=O)[C@@]1(O)C[C@H]2O[C@]1(C)n1c3ccccc3c3c4c(c5c6ccccc6n2c5c31)C(=O)NC4 [K-252A] | 0.182 µM (active) | > 30 µM (inactive) | 1.57 µM (active) | > 30 µM (inactive) | > 30 µM (inactive)
O=C(O)[C@]1(Cc2cccc(Nc3nccs3)n2)CC[C@@H](Oc2cccc(Cl)c2F)CC1 [MK-5108] | > 30 µM (inactive) | > 30 µM (inactive) | > 30 µM (inactive) | > 30 µM (inactive) | > 30 µM (inactive)
Cc1ccc(-n2nc(C(C)(C)C)cc2NC(=O)NCc2cc(F)ccc2Oc2ccc3c(cnn3CCO)c2)cc1 [PEXMETINIB] | > 30 µM (inactive) | > 30 µM (inactive) | > 30 µM (inactive) | > 30 µM (inactive) | 0.192 µM (active)
C=CC(=O)N1CCC(Oc2cc3c(Nc4ccc(Cl)c(Cl)c4F)ncnc3cc2OC)CC1 [POZIOTINIB] | > 30 µM (inactive) | 2.24 µM (active) | 0.003 µM (active) | > 30 µM (inactive) | > 30 µM (inactive)
CNC(=O)c1cc(Oc2ccc(NC(=O)Nc3ccc(Cl)c(C(F)(F)F)c3)c(F)c2)ccn1 [REGORAFENIB] | > 30 µM (inactive) | > 30 µM (inactive) | > 30 µM (inactive) | > 30 µM (inactive) | 1.91 µM (active)
CN(C)C(=O)c1cc2cnc(Nc3ccc(N4CCNCC4)cn3)nc2n1C1CCCC1 [RIBOCICLIB] | > 30 µM (inactive) | > 30 µM (inactive) | > 30 µM (inactive) | > 30 µM (inactive) | > 30 µM (inactive)
COc1cc(OC)c(/C=C/S(=O)(=O)Cc2ccc(OC)c(NCC(=O)O)c2)c(OC)c1 [RIGOSERTIB] | > 30 µM (inactive) | > 30 µM (inactive) | > 30 µM (inactive) | > 30 µM (inactive) | > 30 µM (inactive)
CNC(=O)CN1CCC(Oc2cc3c(Nc4cccc(Cl)c4F)ncnc3cc2OC)CC1 [SAPITINIB] | > 30 µM (inactive) | 2.28 µM | > 30 µM (inactive) | > 30 µM (inactive) | > 30 µM (inactive)
C[C@@H](c1ccc2nccn2c1)n1nnc2ncc(-c3cnn(C)c3)nc21 [SAVOLITINIB] | > 30 µM (inactive) | > 30 µM (inactive) | > 30 µM (inactive) | > 30 µM (inactive) | > 30 µM (inactive)
CN1CCC(CNc2ccc3ncc(-c4cccc(OC(F)(F)F)c4)n3n2)CC1 [SGI-1776] | > 30 µM (inactive) | > 30 µM (inactive) | > 30 µM (inactive) | > 30 µM (inactive) | > 30 µM (inactive)
CN1CCC(COc2cnc(-c3cccc(Cn4nc(-c5cccc(C#N)c5)ccc4=O)c3)nc2)CC1 [TEPOTINIB] | > 30 µM (inactive) | > 30 µM (inactive) | > 30 µM (inactive) | > 30 µM (inactive) | > 30 µM (inactive)
O=c1sn(-c2cccc3ccccc23)c(=O)n1Cc1ccccc1 [TIDEGLUSIB] | > 30 µM (inactive) | > 30 µM (inactive) | > 30 µM (inactive) | > 30 µM (inactive) | > 30 µM (inactive)
CC(=O)Nc1cccc(-n2c(=O)n(C3CC3)c(=O)c3c(Nc4ccc(I)cc4F)n(C)c(=O)c(C)c32)c1 [TRAMETINIB] | > 30 µM (inactive) | > 30 µM (inactive) | > 30 µM (inactive) | > 30 µM (inactive) | > 30 µM (inactive)
CN1N=C(N)c2cn([C@@H]3O[C@H](COP(=O)(O)O)[C@@H](O)[C@H]3O)c3ncnc1c23 [TRICIRIBINE PHOSPHATE] | > 30 µM (inactive) | > 30 µM (inactive) | > 30 µM (inactive) | > 30 µM (inactive) | > 30 µM (inactive)
CC(C)Nc1cc(-c2c[nH]c(C(=O)N[C@H](CO)c3cccc(Cl)c3)c2)c(Cl)cn1 [ULIXERTINIB] | > 30 µM (inactive) | > 30 µM (inactive) | > 30 µM (inactive) | > 30 µM (inactive) | > 30 µM (inactive)
